# Entries after “also recorded” stand apart in the source; their conditions may differ. Like-named read-outs stand apart in the source and are kept apart here.
# How the values were obtained:
# [1] = test system: mouse; set-up: species or system male CF-1 mice; conditions: in vivo
# [2] = test system: mouse; conditions: in vivo
# [3] = in vivo; cited from earlier work
# [4] = test system: dogs; conditions: dog, in vivo
# [5] = test system: mouse; set-up: species or system male CF-1 mice; unit not given here; conditions: in vivo
# [6] = test system: flurothyl induced convulsions; conditions: in vivo; cited from earlier work
# [7] = test system: dogs; conditions: dog, in vivo; cited from earlier work
# [8] = test system: mouse; conditions: in vivo; cited from earlier work
smiles,measurement,setting,value
"FC(F)OCC(F)(F)C(F)F [I, Difluoromethyl 2,2,3,3-tetrafluoropropyl ether]","MOUSE […]., VOL. %",[1],1.0 VOL. %
same,[…] (type of convulsions),[1],CLONIC CONVULSIONS
COC(F)(F)C(F)(F)C(F)(F)F [XVII],cause of death,[2],DEATH DUE TO ANOXIA
"FC(F)OC(F)(F)C(F)C(F)(F)F (stereo not drawn) [III, Difluoromethyl 1,1,2,3,3,3-hexafluoropropyl ether]","MOUSE […]., VOL. %",[1],2.0 VOL. %
FC(F)C(F)(F)COC(F)(F)F [VI],convulsions and death,[3],VIOLENT C[…] DEATH
same,time to violent convulsions and death,[3],30 to 120 s
same,"MOUSE […]., VOL. %",[1],≤ 0.5 VOL. %
FCOC(F)(C(F)F)C(F)(F)F (stereo not drawn) [XIV],convulsant effect in dogs,[4],NON[…] DOGS
same,MOUSE AC50,[5],2.5
COC(C(F)F)C(F)(F)F (stereo not drawn) [XXII],MOUSE AC50,[5],1.5
FCOC(C(F)F)C(F)(F)F (stereo not drawn) [XVI],MOUSE AC50,[5],0.84
"COC(F)(F)C(F)C(F)(F)F (stereo not drawn) [XVIII, methyl 1,1,2,3,3,3-hexafluoropropyl ether]",MOUSE AC50,[5],3.9
FCOC(F)(F)C(F)C(F)(F)F (stereo not drawn) [XIII],MOUSE AC50,[5],2.1
FC(F)OC(F)C(F)(F)C(F)F (stereo not drawn) [VIII],convulsant effect in dogs,[4],NON[…] DOGS
same,MOUSE AC50,[5],0.61
FC(F)OC(C(F)F)C(F)(F)F (stereo not drawn) [XI],MOUSE AC50,[5],0.84
FCOC(C(F)(F)F)C(F)(F)F [XV],convulsant effect in dogs,[4],NON[…] DOGS
same,MOUSE AC50,[5],1.4
COC(C(F)(F)F)C(F)(F)F [XXI],convulsant effect in dogs,[4],NON[…] DOGS
same,MOUSE AC50,[5],2.2
same,antagonism to flurothyl induced convulsions,[6],ANTAGONIST
"COCC(F)(F)C(F)(F)F [XIX, methyl 2,2,3,3,3-pentafluoropropyl ether]",effect in dogs,[7],EXTENSOR RIGIDITY OF HIND LEGS; also recorded: TREMORS
same,MOUSE AC50,[5],11
FC(F)OC(C(F)F)C(F)F [XII],MOUSE AC50,[5],0.64
FC(F)OC(F)C(F)(F)C(F)(F)F (stereo not drawn) [IX],MOUSE AC50,[5],4.3
"FC(F)(F)COCC(F)(F)F [VII, flurothyl]","MOUSE […]., VOL. %",[8],≤ 0.25 VOL. %
same,[…] (type of convulsions),[1],CLONIC AND TONIC CONVULSIONS
same,time to clonic and tonic convulsions,[1],30 s
FC(F)OC(C(F)(F)F)C(F)(F)F [X],convulsant effect in dogs,[4],NON[…] DOGS
same,MOUSE AC50,[5],2.5
"FCOCC(F)(F)C(F)(F)F [V, Fluoromehtyl 2,2,3,3,3-pentafluoropropyl ether]","MOUSE […]., VOL. %",[1],1.5 VOL. %
same,[…] (type of convulsions),[1],METRAZOLE-LIKE CONVULSIONS
COCC(F)(F)C(F)F [XX],MOUSE AC50,[5],2.5
"FC(F)OCC(F)(F)C(F)(F)F [II, Difluoromethyl 2,2,3,3,3-pentafluoropropyl ether]","MOUSE […]., VOL. %",[1],1.4 VOL. %
same,[…] (type of convulsions),[1],"CLONIC AND TONIC CONVULSIONS, CATALEPSY"
"FC(F)OC(F)(C(F)F)C(F)F [IV, Difluoromethyl 1,1,2,3,3-pentafluoro-2-propyl ether]",convulsant effect in dogs,[4],OPISTHOTONOID
same,"MOUSE […]., VOL. %",[1],1.2 VOL. %
same,[…] (type of convulsions),[1],C[…] SEDATION
COC(C(F)F)C(F)F [XXIII],MOUSE AC50,[5],1.4
